Source: ChEMBL document CHEMBL1153522, “Spirocyclic delta opioid receptor agonists for the treatment of pain: discovery of N,N-diethyl-3-hydroxy-4-(spiro[chromene-2,4'-piperidine]-4-yl) benzamide (ADL5747)” (J Med Chem, 2009)

Key:
CYP2C19 = assay: In vitro stability in presence of human CYP2C19 assessed as compound remaining at 1 uM after 1 hr; format: ADME; settings: read-out: Stability
CYP2D6 = assay: In vitro stability in presence of human CYP2D6 assessed as compound remaining at 1 uM after 1 hr; format: ADME; settings: read-out: Stability
[1] = AUC (0 to infinity) in Beagle dog at 3 mg/kg, po administered as single dose; format: ADME, organism-based, Canis lupus familiaris; design: time infinity, dose 3 mg/kg, route oral; settings: plasma
[2] = Systemic clearance in Beagle dog at 1 mg/kg, iv administered as single dose; format: ADME, organism-based, Canis lupus familiaris; design: dose 1 mg/kg, route intravenous; settings: in vivo
[3] = Volume of distribution at steady state in rat at 2.5 mg/kg, iv administered as single dose; format: ADME, organism-based; design: dose 2.5 mg/kg, route intravenous; settings: in vivo, read-out: Vdss
[4] = Tmax in rat at 10 mg/kg, po administered as single dose; format: ADME, organism-based; design: dose 10 mg/kg, route oral; settings: in vivo
[5] = Half life in rat at 2.5 mg/kg, iv administered as single dose; format: ADME, organism-based; design: dose 2.5 mg/kg, route intravenous; settings: in vivo
[6] = Oral bioavailability in Beagle dog at 3 mg/kg administered as single dose; format: ADME, organism-based, Canis lupus familiaris; settings: in vivo
[7] = AUC (0 to infinity) in Beagle dog at 1 mg/kg, iv administered as single dose; format: ADME, organism-based, Canis lupus familiaris; design: time infinity, dose 1 mg/kg, route intravenous; settings: plasma
[8] = Cmax in Beagle dog at 3 mg/kg, po administered as single dose; format: ADME, organism-based, Canis lupus familiaris; design: dose 3 mg/kg, route oral; settings: in vivo
[9] = AUC in rat plasma at 30 mg/kg, po administered as single dose after 6 hrs; format: ADME, organism-based; design: time < 6 hr, dose 30 mg/kg, route oral
[10] = AUC (0 to infinity) in rat at 2.5 mg/kg, iv administered as single dose; format: ADME, organism-based; design: time infinity, dose 2.5 mg/kg, route intravenous; settings: plasma
Rattus norvegicus = assay: fAUC in rat plasma at 30 mg/kg, po administered as single dose after 6 hrs; format: ADME, organism-based; design: dose 30 mg/kg, route oral; settings: in vivo
[11] = Half life in Beagle dog at 1 mg/kg, iv administered as single dose; format: ADME, organism-based, Canis lupus familiaris; design: dose 1 mg/kg, route intravenous; settings: in vivo
[12] = Systemic clearance in rat at 2.5 mg/kg, iv administered as single dose; format: ADME, organism-based; design: dose 2.5 mg/kg, route intravenous; settings: in vivo
[13] = Metabolic stability in Beagle dog liver microsomes assessed as compound remaining after 30 mins; format: ADME, Canis lupus familiaris, Microsome; settings: read-out: Stability
[14] = Half life in rat at 10 mg/kg, po administered as single dose; format: ADME, organism-based; design: dose 10 mg/kg, route oral; settings: in vivo
[15] = AUC (0 to infinity) in rat at 10 mg/kg, po administered as single dose; format: ADME, organism-based; design: time infinity, dose 10 mg/kg, route oral; settings: plasma
[16] = AUC in rat brain raphe magnus at 30 mg/kg, po administered as single dose after 6 hrs; format: ADME, organism-based; design: dose 30 mg/kg, route oral; settings: read-out: Drug uptake
[17] = Cmax in rat at 10 mg/kg, po administered as single dose; format: ADME, organism-based; design: dose 10 mg/kg, route oral; settings: in vivo
[18] = Metabolic stability in human liver microsomes assessed as compound remaining after 30 mins; format: ADME, Microsome; settings: read-out: Stability
Canis familiaris = species: Canis familiaris; assay: Plasma concentration in Beagle dog after 15 to 30 mins; format: ADME, organism-based, Canis lupus familiaris; settings: in vivo
[19] = Tmax in Beagle dog at 3 mg/kg, po administered as single dose; format: ADME, organism-based, Canis lupus familiaris; design: dose 3 mg/kg, route oral; settings: in vivo
[20] = Half life in Beagle dog at 3 mg/kg, po administered as single dose; format: ADME, organism-based, Canis lupus familiaris; design: dose 3 mg/kg, route oral; settings: in vivo
[21] = Metabolic stability in rat liver microsomes assessed as compound remaining after 30 mins; format: ADME, Microsome; settings: read-out: Stability
[22] = Volume of distribution at steady state in Beagle dog at 1 mg/kg, iv administered as single dose; format: ADME, organism-based, Canis lupus familiaris; design: dose 1 mg/kg, route intravenous; settings: in vivo, read-out: Vdss
[23] = Oral bioavailability in rat at 10 mg/kg administered as single dose; format: ADME, organism-based; settings: in vivo
CYP3A4 = assay: In vitro stability in presence of human CYP3A4 assessed as compound remaining at 1 uM after 1 hr; format: ADME; settings: read-out: Stability

Work on CCN(CC)C(=O)c1ccc(C2=CC3(CCNCC3)Oc3ccccc32)c(O)c1 [ADL-5747 FREE BASE] yielded a remaining at 1 h, 1 µM (CYP2C19) of 78.4%, a remaining at 1 h, 1 µM (CYP2D6) of 63.2% and an AUC(0-inf) [1] of 4200 ng·h/mL. For the same compound, the clearance [2] was 6.33 mL/min/kg, the Vd [3] was 18.1 L/kg and the Tmax [4] was 1.3 h. The half-life [5] was 318 min, the bioavailability [6] was 54.5% and the AUC(0-inf) [7] was 2640 ng·h/mL. For the same compound, the Cmax [8] was 852 ng/mL, the AUC at 6 h [9] was 4610 ng·h/mL and the AUC(0-inf) [10] was 780 ng·h/mL. The fAUC (Rattus norvegicus) was 990 ng·h/mL, the half-life [11] was 732 min and the clearance [12] was 55 mL/min/kg. For the same compound, the remaining at 0.5 h [13] was 63.9%, the half-life [14] was 294 min and the AUC(0-inf) [15] was 1150 ng·h/mL. For the same compound, the AUC at 6 h [16] was 105 ng·h/mL, the Cmax [17] was 246 ng/mL and the remaining at 0.5 h [18] was 94.5%. It also gave a Cp (Canis familiaris) of 808 ng/mL, a Tmax [19] of 24 min and a half-life [20] of 462 min. For the same compound, the remaining at 0.5 h [21] was 59.7%, the Vd [22] was 5.1 L/kg and the bioavailability [23] was 37.6%. It also gave a remaining at 1 h, 1 µM (CYP3A4) of 22.5%.
